Test results reported in US8431596B2 (Cancer Research Technology Limited, priority 2007, dated 2013).

Molecular target: T1, AXL (human catalytic domain) (Homo sapiens, UniProt P30530)
T1 construct: purchased Upstate Ltd. 14-512
T1 sequence (P30530 473-894): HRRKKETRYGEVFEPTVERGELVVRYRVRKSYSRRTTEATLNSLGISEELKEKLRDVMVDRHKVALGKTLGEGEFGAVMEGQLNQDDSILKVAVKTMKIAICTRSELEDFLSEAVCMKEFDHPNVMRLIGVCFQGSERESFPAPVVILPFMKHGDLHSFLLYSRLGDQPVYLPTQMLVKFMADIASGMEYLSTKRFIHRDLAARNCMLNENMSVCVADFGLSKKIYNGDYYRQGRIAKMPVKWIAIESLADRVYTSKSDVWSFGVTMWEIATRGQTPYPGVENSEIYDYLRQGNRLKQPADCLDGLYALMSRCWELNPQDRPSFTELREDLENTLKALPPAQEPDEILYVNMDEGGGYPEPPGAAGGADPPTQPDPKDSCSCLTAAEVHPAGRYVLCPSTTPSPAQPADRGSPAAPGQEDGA
Assay: AXL (human catalytic domain) Enzyme Activity Assay (IMAP fluorescence polarisation)
Format: biochemical
Summary of the method: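 Recombinant human AXL isoform 1 (aa473-894; final 15 nM) phosphorylated 100 nM fluorescein-CSK-tide with 150 μM ATP (KM) in HEPES pH 7.0/MgCl2/DTT buffer for 60 min at room temperature. IMAP fluorescence polarisation read after overnight binding; IC50 from 10-point 4-parameter logistic fits.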

[1] = first data set, recombinant AXL isoform 1 aa473-894, 150 μM ATP
[2] = further data set (WW-001 through WW-169, XX-001 through XX-469, YY-001 through YY-016, ZZ-001 through ZZ-003), 150 μM ATP

Compound	IC50 [1] [nM]	IC50 [2] [nM]
CN(C(=O)OC(C)(C)C)c1ccc(-c2cccc3nc(NC(=O)C4CC4)nn23)cc1 [WW-119, {4-[2-(cyclopropanecarbonyl-amino)-[1,2,4]triazolo[1,5-a]pyridin-5-yl]-phenyl}-methyl-carbamic acid tert-butyl ester]	1000 to 10000	1000 to 10000
Cc1cc(-c2cccc3nc(NC(=O)C4CC4)nn23)ccn1 [WW-087]	1000 to 10000	1000 to 10000
COc1ccc(-c2cccc3nc(NC(=O)C4CC4)nn23)cn1 [WW-006, Cyclopropanecarboxylic acid [5-(6-methoxy-pyridin-3-yl)-[1,2,4]triazolo[1,5-a]pyridin-2-yl]-amide]	1000 to 10000	1000 to 10000
Cc1cccc(CNc2cccc(-c3cccc4nc(Nc5ccc(OCCN6CCCC6)cc5)nn34)c2)c1 [XX-455]	–	1000 to 10000
CCN(CC)CCC(=O)Nc1cccc(Nc2nc3cccc(-c4ccc5c(c4)OCCO5)n3n2)c1 [XX-124]	–	100 to 1000
O=C(O)Cn1cc(-c2cccc3nc(Nc4ccc(OCCN5CCCC5)cc4)nn23)cn1 [XX-440, (4-{2-[4-(2-Pyrrolidin-1-yl-ethoxy)-phenylamino]-[1,2,4]triazolo[1,5-a]pyridin-5-yl}-pyrazol-1-yl)-acetic acid]	–	1000 to 10000
NCCNS(=O)(=O)c1ccc(Nc2nc3cccc(-c4ccc5c(c4)OCCO5)n3n2)cc1 [XX-144]	–	100 to 1000
COc1ncc(-c2cccc3nc(Nc4ccc(OCCN5CCCC5)cc4)nn23)cn1 [XX-197]	–	1000 to 10000
COc1ccc(-c2cccc3nc(Nc4ccc(OCCN5CCCC5)c(OC)c4)nn23)cc1 [XX-066]	< 1000	≤ 100
CN(C)c1cccc(-c2cccc3nc(NC(=O)C4CC4)nn23)c1 [WW-071]	1000 to 10000	1000 to 10000
COc1cc(Nc2nc3ccnc(-c4ccc5c(c4)OCCO5)n3n2)ccc1OCCN1CCCC1 [YY-008]	–	100 to 1000
O=C(Nc1cccc(-c2cccc3nc(Nc4ccc(OCCN5CCCC5)cc4)nn23)c1)c1cccnc1 [XX-180]	–	100 to 1000
O=C(Nc1nc2cccc(-c3ccc(CO)cc3)n2n1)C1CC1 [WW-027]	1000 to 10000	1000 to 10000
CS(=O)(=O)OCCn1cc(-c2cccc3nc(Nc4ccc(OCCN5CCCC5)cc4)nn23)cn1 [XX-091, Methanesulfonic acid 2-(4-{2-[4-(2-pyrrolidin-1-yl-ethoxy)-phenylamino]-[1,2,4]triazolo[1,5-a]pyridin-5-yl}-pyrazol-1-yl)-ethyl ester]	–	100 to 1000
O=C(Cn1cc(-c2cccc3nc(Nc4ccc(OCCN5CCCC5)cc4)nn23)cn1)Nc1cccc(Cl)c1 [XX-435]	–	100 to 1000
O=C(Nc1nc2cccc(Nc3ccccc3Cl)n2n1)C1CC1 [WW-128]	1000 to 10000	1000 to 10000
CC(Sc1ccc(Nc2nc3cccc(-c4ccc5c(c4)OCCO5)n3n2)cc1)C(N)=O (stereo not shown) [XX-161]	–	100 to 1000
O=C(Nc1nc2ccnc(-c3ccc4c(c3)OCCO4)n2n1)C1CC1 [ZZ-001, Cyclopropanecarboxylic acid [5-(2,3-dihydro-benzo[1,4]dioxin-6-yl)-[1,2,4]triazolo[1,5-c]pyrimidin-2-yl]-amide]	364	100 to 1000
Cc1ccc(-c2nnc(COc3cccc(-c4cccc5nc(Nc6ccc(OCCN7CCCC7)cc6)nn45)c3)o2)cc1 [XX-406]	–	1000 to 10000
COc1ccc(-c2cccc3nc(Nc4ccc(OC)nc4)nn23)cc1 [XX-010]	1000 to 10000	–

Compound	IC50 [1] [nM]	IC50 [2] [nM]
c1cc(-c2ccc3c(c2)CCO3)n2nc(Nc3ccc(OCCN4CCCC4)cc3)nc2c1 [XX-044]	< 1000	–
CN(C)CCOc1ccc(Nc2nc3cccc(-c4ccc5c(c4)OCO5)n3n2)cc1 [XX-048]	< 1000	100 to 1000
COc1ccc(-c2cccc3nc(Nc4ccc(OCCNCCO)cc4)nn23)cc1 [XX-026]	< 1000	100 to 1000
O=S(=O)(Cc1cccc(Cl)c1)n1cc(-c2cccc3nc(Nc4ccc(OCCN5CCCC5)cc4)nn23)cn1 [XX-288]	–	100 to 1000
CC[C@@H](COc1ccc(Nc2nc3cccc(-c4ccc(OC)cc4)n3n2)cc1)N1CCCC1 [XX-388]	–	≤ 100
COc1ccc(-c2cccc3nc(Nc4ccc(OCCN(C)C)cc4)nn23)cc1 [XX-006]	< 1000	100 to 1000
C[C@@H](CN)Oc1ccc(Nc2nc3cccc(-c4ccc5c(c4)OCCO5)n3n2)cc1 [XX-141]	–	100 to 1000
O=C(Nc1nc2cccc(-c3cccc([N+](=O)[O-])c3)n2n1)C1CC1 [WW-091]	1000 to 10000	1000 to 10000
NCC(=O)Nc1ccc(-c2cccc3nc(NC(=O)C4CC4)nn23)cc1 [WW-155, Cyclopropanecarboxylic acid {5-[4-(2-amino-acetylamino)-phenyl]-[1,2,4]triazolo[1,5-a]pyridin-2-yl}-amide]	1000 to 10000	1000 to 10000
Cn1ccnc1CNc1cccc(-c2cccc3nc(Nc4ccc(OCCN5CCCC5)cc4)nn23)c1 [XX-258]	–	1000 to 10000
O=C(Nc1nc2cccc(-c3ccc(O)cc3)n2n1)C1CC1 [WW-022, cyclopropanecarboxylic acid [5-(4-hydroxy-phenyl)-[1,2,4]triazolo[1,5-a]pyridin-2-yl]-amide]	< 1000	100 to 1000
Clc1cccc(COc2cccc(-c3cccc4nc(Nc5ccc(OCCN6CCCC6)cc5)nn34)c2)c1 [XX-330]	–	1000 to 10000
CCS(=O)(=O)n1cc(-c2cccc3nc(NC(=O)C4CC4)nn23)cn1 [WW-147, Cyclopropanecarboxylic acid [5-(1-ethanesulfonyl-1H-pyrazol-4-yl)-[1,2,4]triazolo[1,5-a]pyridin-2-yl]-amide]	1000 to 10000	1000 to 10000
CNCCOc1cccc(Nc2nc3cccc(-c4ccc5c(c4)OCO5)n3n2)c1 [XX-088]	< 1000	100 to 1000
COc1ccc(NC(=O)Nc2cccc(-c3cccc4nc(Nc5ccc(OCCN6CCCC6)cc5)nn34)c2)cc1 [XX-231]	–	100 to 1000
CNCCOc1ccc(Nc2nc3cccc(-c4ccc(OC)cc4)n3n2)cc1 [XX-022]	< 1000	100 to 1000
CCN(CC)CCOc1cccc(Nc2nc3cccc(-c4ccc5c(c4)OCCN5C)n3n2)c1 [XX-096]	–	100 to 1000
O=S(=O)(c1cccc(Cl)c1)n1cc(-c2cccc3nc(Nc4ccc(OCCN5CCCC5)cc4)nn23)cn1 [XX-285]	–	100 to 1000
CCN(CC)CCOc1cc(Nc2nc3cccc(-c4ccc5c(c4)OCCO5)n3n2)ccn1 [XX-163]	–	≤ 100
Cc1ccc2sc(-c3cccc4nc(Nc5ccc(OCCN6CCCC6)cc5)nn34)cc2c1 [XX-214]	–	100 to 1000

Compound	IC50 [1] [nM]	IC50 [2] [nM]
c1ccc2cc(-c3cccc4nc(Nc5ccc(OCCN6CCCC6)cc5)nn34)ccc2c1 [XX-242]	–	100 to 1000
CCN(CC)CCOc1cc(Nc2nc3cccc(-c4ccc(OC)cc4)n3n2)ccn1 [XX-361]	–	≤ 100
CCN(CC)CCNc1ccc(-c2cccc3nc(NC(=O)C4CC4)nn23)cc1 [WW-153, Cyclopropanecarboxylic acid {5-[4-(2-diethylamino-ethylamino)-phenyl]-[1,2,4]triazolo[1,5-a]pyridin-2-yl}-amide]	1000 to 10000	1000 to 10000
c1ccc(Cn2cc(-c3cccc4nc(Nc5ccc(OCCCN6CCCCC6)cc5)nn34)cn2)cc1 [XX-423]	–	100 to 1000
CN1CCN(C(=O)c2ccc(Nc3nc4cccc(-c5ccc6c(c5)OCCO6)n4n3)cc2)CC1 [XX-111]	–	100 to 1000
Cn1ccc2cc(-c3cccc4nc(Nc5ccc(OCCN6CCCC6)cc5)nn34)ccc21 [XX-439]	–	100 to 1000
Fc1ccccc1CNc1cccc(-c2cccc3nc(Nc4ccc(OCCN5CCCC5)cc4)nn23)c1 [XX-238]	–	100 to 1000
CC(=O)Nc1cccc(-c2cccc3nc(Nc4ccc(OCCN5CCCC5)cc4)nn23)c1 [XX-241]	–	100 to 1000
COc1ccc(-c2cccc3nc(Nc4ccc(OCCNCc5ccccn5)cc4)nn23)cc1 [XX-029]	< 1000	100 to 1000
COc1c(C)cc(-c2cccc3nc(Nc4ccc(OCCN5CCCC5)cc4)nn23)cc1C [XX-207]	–	100 to 1000
CCN(CC)CCNc1ccc(Nc2nc3cccc(-c4ccc5c(c4)OCCO5)n3n2)cc1 [XX-127]	–	≤ 100
CCN(CC)CCC(=O)Nc1ccc(Nc2nc3cccc(-c4ccc5c(c4)OCCO5)n3n2)cc1 [XX-122]	–	100 to 1000
O=C(NCc1cccc(-c2cccc3nc(Nc4ccc(OCCN5CCCC5)cc4)nn23)c1)Nc1cccc(Cl)c1 [XX-348, 1-(3-Chloro-phenyl)-3-(3-{2-[4-(2-pyrrolidin-1-yl-ethoxy)-phenylamino]-[1,2,4]triazolo[1,5-a]pyridin-5-yl}-benzyl)-urea]	–	1000 to 10000
COc1ccc(-c2cccc3nc(Nc4ccc(OCCN(C)Cc5ccc(N)cc5)cc4)nn23)cc1 [XX-067]	< 1000	≤ 100
COc1ccc(-c2nc(COc3cccc(-c4cccc5nc(Nc6ccc(OCCN7CCCC7)cc6)nn45)c3)no2)cc1 [XX-461]	–	1000 to 10000
Cc1ccc(-c2cccc3nc(Nc4ccc(OCCN5CCCC5)cc4)nn23)cc1C [XX-279]	–	100 to 1000
c1ccc(-c2cccc3nc(Nc4ccc(OCCN5CCCC5)cc4)nn23)cc1 [XX-159]	–	100 to 1000
c1csc(SCCn2cc(-c3cccc4nc(Nc5ccc(OCCN6CCCC6)cc5)nn34)cn2)c1 [XX-426]	–	100 to 1000
COc1ccc(-c2cccc3nc(Nc4cccc(C(=O)NCCO)c4)nn23)cc1 [XX-042]	–	100 to 1000
